# In patent US20060167110A1 (priority 1995, published 2006):
# Key:
# [1] = biological target: T1, MAO-A (Cavia porcellus, UniProt H0UVA2); experiment: In vivo MAO-A inhibition in guinea pig cortex (hippocampus) after 5 s.c. treatments; conditions: sc, read-out: inhibition of MAO-A activity
# T1 sequence (H0UVA2 1-461): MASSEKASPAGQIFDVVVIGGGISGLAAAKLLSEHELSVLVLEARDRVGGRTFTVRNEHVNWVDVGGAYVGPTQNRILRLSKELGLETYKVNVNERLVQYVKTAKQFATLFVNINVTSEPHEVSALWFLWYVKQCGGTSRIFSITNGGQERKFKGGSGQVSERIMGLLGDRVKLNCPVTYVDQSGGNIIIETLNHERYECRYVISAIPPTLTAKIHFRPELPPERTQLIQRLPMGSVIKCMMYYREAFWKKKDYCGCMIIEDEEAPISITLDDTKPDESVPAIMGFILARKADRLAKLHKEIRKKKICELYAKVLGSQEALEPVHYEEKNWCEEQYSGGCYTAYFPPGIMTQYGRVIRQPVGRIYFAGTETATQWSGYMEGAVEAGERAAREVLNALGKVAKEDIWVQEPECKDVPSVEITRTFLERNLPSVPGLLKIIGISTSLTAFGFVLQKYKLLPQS
# Method: Hippocampal homogenates containing enzyme were prepared, and assays in vitro for MAO-A and MAO-B activity.
# [2] = biological target: T2, MAO-B (Cavia porcellus, UniProt P58028); experiment: MAO-B inhibition in guinea pig hippocampal homogenates in vitro; format: biochemical
# T2 construct: MAO-B (^14C-phenylethylamine) by human platelets and guinea pig hippocampal homogenates; from tissue; host or cells: guinea pig hippocampal homogenates
# T2 sequence (P58028 1-520): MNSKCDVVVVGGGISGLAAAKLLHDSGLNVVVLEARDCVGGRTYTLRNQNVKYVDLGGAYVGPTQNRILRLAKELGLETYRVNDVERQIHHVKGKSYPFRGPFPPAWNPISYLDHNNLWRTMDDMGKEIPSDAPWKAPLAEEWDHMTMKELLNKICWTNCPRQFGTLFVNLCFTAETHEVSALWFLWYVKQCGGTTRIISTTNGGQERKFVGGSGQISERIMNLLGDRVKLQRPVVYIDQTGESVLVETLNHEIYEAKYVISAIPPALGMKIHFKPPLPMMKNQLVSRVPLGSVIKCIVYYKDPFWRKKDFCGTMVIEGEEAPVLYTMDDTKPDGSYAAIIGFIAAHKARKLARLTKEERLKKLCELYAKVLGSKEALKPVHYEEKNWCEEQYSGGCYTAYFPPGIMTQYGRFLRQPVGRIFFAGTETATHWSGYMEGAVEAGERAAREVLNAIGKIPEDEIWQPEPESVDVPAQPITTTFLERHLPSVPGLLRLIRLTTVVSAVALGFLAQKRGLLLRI
# Excerpt: (§1) Human platelet MAO is comprised exclusively of the type-B isoform of the enzyme. […] The present study also examined the two enantiomers of DMS for inhibitory activity with respect to the MAO-A and MAO-B in guinea pig hippocampal tissue. Guinea pig brain tissue is an excellent animal model for studying brain dopamine metabolism, the enzyme kinetics of the multiple forms of MAO and the inhibitory properties of novel agents that interact with these enzymes. The multiple forms of MAO in this animal species show similar kinetic properties to those found in human brain tissue. Finally, the test agents were administered to guinea pigs and the extent to which they might act as inhibitors of brain MAO in vivo was assessed.
# (§2) In vitro: The test system utilized the in vitro conversion of specific substrates of MAO-A (^14C-serotonin) in guinea pig hippocampal homogenates or MAO-B (^14C-phenylethylamine) by human platelets and guinea pig hippocampal homogenates. […] A percent inhibition was calculated from these values.
# [3] = biological target: T2, MAO-B; experiment: In vivo brain MAO-B inhibition in guinea pig hippocampus after 5 daily s.c. doses; conditions: preliminary studies
# Method: FIG. 20: In vivo MAO-B Inhibition in Guinea Pig Hippocampus. […] Animals were then sacrificed and the MAO-B activity in the hippocampus portion of the brain was determined. […] The plots were used to estimate the ID50 dosage for each agent.
# Each enantiomer of DMS was administered in vivo by subcutaneous injection once a day for five consecutive days, and inhibition of brain MAO-B activity was then determined.
# [4] = system: rat embryonic mesencephalic cells; experiment: [3H]dopamine uptake, medium change (glutamate receptor dependent) model of cell death
# Method: Preparations are then added to 10 ml Ecoscint (National Diagnostics) and counted in a scintillation spectrometer.
# In these experiments, cells were plated and allowed to stabilize for several days.
# [5] = biological target: T1, MAO-A; experiment: MAO-A inhibition in guinea pig hippocampal homogenates in vitro; format: biochemical; set-up: specific substrates of MAO-A (^14C-serotonin) in guinea pig hippocampal homogenates; from tissue; host or cells: guinea pig hippocampal homogenates
# Excerpt: as §1, §2
# [6] = biological target: T3, MAO-A (Rattus norvegicus, UniProt P21396); experiment: MAO-A inhibition in rat brain tissue; format: biochemical; set-up: from tissue; host or cells: rat cortex mitochondrial-rich fractions
# T3 sequence (P21396 1-526): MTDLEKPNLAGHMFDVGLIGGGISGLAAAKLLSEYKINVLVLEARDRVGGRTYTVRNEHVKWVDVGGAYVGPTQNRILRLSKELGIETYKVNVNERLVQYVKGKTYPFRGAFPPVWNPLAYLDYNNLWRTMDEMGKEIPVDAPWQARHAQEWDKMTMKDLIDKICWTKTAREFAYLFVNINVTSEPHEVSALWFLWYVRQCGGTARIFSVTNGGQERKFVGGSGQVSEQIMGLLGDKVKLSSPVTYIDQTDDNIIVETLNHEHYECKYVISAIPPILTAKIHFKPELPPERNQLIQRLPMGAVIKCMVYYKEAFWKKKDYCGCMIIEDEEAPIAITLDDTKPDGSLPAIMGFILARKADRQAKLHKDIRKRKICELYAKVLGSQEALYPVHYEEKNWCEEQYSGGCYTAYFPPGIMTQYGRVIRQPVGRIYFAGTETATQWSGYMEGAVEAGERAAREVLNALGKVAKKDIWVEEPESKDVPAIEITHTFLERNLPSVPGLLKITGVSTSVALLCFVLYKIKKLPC
smiles,measurement,setting,value
"C#CCNC(C)Cc1ccccc1 (single isomer, unassigned) [R(−)DMS, R(−)-desmethylselegiline]",inhibition at 3 mg/kg,[1],29.8%
same,IC50,"[2]; IC50 Values for the Inhibition of MAO-B, Guinea Pig Hippocampal Cortex",0.06 µM
same,"reduction in potency compared to selegiline, MAO-B, Guinea Pig Hippocampal Cortex",[2]; figure in parentheses,60 nM (60)
same,"times less potent than selegiline, brain MAO-B in vivo",[3],about 10 times
same,neuron protection by measurement of dopamine uptake (FIG. 15),[4]; 5 μM,neuron protection
same,more axonal growth and terminal axonal survival compared to untreated control cells,"[4]; 10 μM, medium change model",40%
same,neuron protection by measurement of dopamine uptake (FIG. 15),[4]; 50 μM,neuron protection
same,IC50,[5],50 µM
same,MAO-A % Reduction 0 ± SEM,[5]; Concentration 300 nM,4.8 ± 2.1%
same,MAO-A % Reduction 0 ± SEM,[5]; Concentration 1 μM,4.2 ± 1.5%
same,MAO-A % Reduction 0 ± SEM,[5]; Concentration 3 μM,10.5 ± 2.0%
same,MAO-A % Reduction 0 ± SEM,[5]; Concentration 10 μM,19.0 ± 1.3%
same,MAO-A % Reduction 0 ± SEM,[5]; Concentration 100 μM,64.2 ± 1.5%
same,MAO-A % Reduction 0 ± SEM,[5]; Concentration 1 mM,96.5 + 1.2%
same,"reduction in potency compared to selegiline, MAO-A","[5]; figure in parentheses, times less potent",20
same,IC50,[6],70 µM
same,times less potent than selegiline in inhibiting MAO-A,"[6]; in vitro, rat brain tissue",approximately 39 times
"C#CCN(C)Cc1ccccc1 [Pargyline, pargyline, reference compound]",neuron protection by measurement of dopamine uptake (FIG. 15),"[4]; at the concentrations used (0.5, 5 and 50 μM)",did not appear to offer any protection
"C#CCN(C)CCCOc1ccc(Cl)cc1Cl [clorgyline, reference compound]",neuron protection by measurement of dopamine uptake (FIG. 15),[4]; 50 μM,protected
"C[C@]12N[C@H](Cc3ccccc31)c1ccccc12 [MK-801, reference compound]",neuron protection by measurement of dopamine uptake (FIG. 15),[4]; 10 μM,protection was also obtained
